Here are results for twelve compounds from ChEMBL document CHEMBL1201862, “PubChem BioAssay data set” (2004).

Some test systems named below: SF-268; UACC-62; DMS-114; SF-539; M14; HCT-116; KM12; EKVX; TK-10; SK-MEL-2; HT-29; U-251; A549; HCT-15; OVCAR-8; MCF7; MDA-MB-231; MDA-N; PC-3.
Holding throughout (assay): NCI tumour cell line growth inhibition, 48 h

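Assay format: 96-well plates, 48-hour exposure. Abbreviation: GI50, concentration required for 50% inhibition of growth.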 Active and inactive are the calls of the source. No stated cut-off is given here; in the data, active = GI50 up to about 1.1 µM and inactive = higher.

`CCOC(=O)C(=O)Nc1ccc(C)c(C)c1`: the GI50 with SF-268 is > 100 µM (inactive); with UACC-62, > 100 µM (inactive); in the test with DMS-114, > 40.9 µM (inactive); in the test on SF-539, > 100 µM (inactive); in the test with M14, > 100 µM (inactive); with HCT-116, > 84.7 µM (inactive). The GI50 in the test on KM12 was > 53.8 µM (inactive); with EKVX, > 100 µM (inactive); with TK-10 it was > 100 µM (inactive); in the test with SK-MEL-2 it was > 100 µM (inactive); in the test on HT-29 it was > 56.2 µM (inactive); with U-251, > 100 µM (inactive). Further, the results for the GI50 in the test with A549 and in the test with HCT-15 were > 100 µM (inactive) and above 41.2 µM, respectively.

As for `CC1(C)O[C@H]2[C@H](O)C[C@](O)(CO)C[C@H]2O1`, the GI50 with UACC-62, with DMS-114, in the test on SF-539, in the test with M14, with HCT-116 and in the test on KM12 was > 100 µM (inactive) in each case. The GI50 in the test on EKVX, in the test on OVCAR-8, in the test on TK-10, in the test on SK-MEL-2, in the test on HT-29 and in the test on U-251 was > 100 µM (inactive) in each case. Also, the GI50 is > 100 µM (inactive) in the test with A549 and above 100 µM in the test with HCT-15.

For the compound `CC1=C[C@@H](C)C[C@]2(C)CC[C@H](O2)[C@]23CC[C@](CO)(C[C@H](O2)[C@@H]2O[C@@](C)(CC2=O)[C@@H](O)[C@H]2CC[C@@]4(CCC[C@@H](O4)[C@H](C)C(=O)O[C@H]4C[C@H]([C@]5(O)OCC[C@H](C)[C@@H]5O)O[C@H]4C=C1)O2)O3`, the GI50 is 0.00279 µM (active) in the test on SF-268; 0.00325 µM (active) in the test with UACC-62; 0.00272 µM (active) in the test with SF-539; 0.0258 µM (active) with M14; 0.0222 µM (active) in the test with HCT-116; > 10 µM (inactive) in the test on MCF7. Moreover, the GI50 was 0.757 µM (active) in the test with KM12; 0.013 µM (active) with EKVX; 0.0562 µM (active) with OVCAR-8; 0.0225 µM (active) in the test on MDA-MB-231; 0.0951 µM (active) in the test with MDA-N; 0.0179 µM (active) with TK-10. Besides, the GI50 is 0.0513 µM (active) with SK-MEL-2; 0.0166 µM (active) in the test with HT-29; 0.022 µM (active) in the test with U-251; 0.0137 µM (active) in the test with PC-3; 0.0294 µM (active) with A549; 0.15 µM in the test with HCT-15.

As to `Clc1ccccc1CN1COc2c(ccc3cccnc23)C1`, the GI50 in the test on SF-268 was 3.65 µM (inactive); with UACC-62 it was 3.09 µM (inactive); with DMS-114, 2.67 µM (inactive); with SF-539, 3.59 µM (inactive); in the test with M14 it was 2.59 µM (inactive); in the test with HCT-116, 3.07 µM (inactive). Further, the GI50 in the test on KM12 is 3.98 µM (inactive); in the test on EKVX, 4.46 µM (inactive); with OVCAR-8 it was 4.19 µM (inactive); in the test with TK-10, 10.4 µM (inactive); in the test with SK-MEL-2, 1.72 µM (inactive); with U-251, 5.6 µM (inactive). In addition, the GI50 is 3.75 µM (inactive) in the test with A549 and 2.06 µM in the test with HCT-15.

Turning to `Cc1ccc(Nc2nc3ccccc3c(=O)n2N)cc1`, the GI50 with SF-268, with UACC-62, in the test with SF-539, with M14, with HCT-116 and with MCF7 was > 100 µM (inactive) in each case. For the same compound, the GI50 with KM12, with EKVX, in the test on OVCAR-8, in the test with MDA-MB-231, in the test on MDA-N and with TK-10 was > 100 µM (inactive) throughout. In addition, the GI50 was > 100 µM (inactive) with SK-MEL-2; 78.2 µM (inactive) in the test with HT-29; > 100 µM (inactive) with U-251; > 100 µM (inactive) in the test on PC-3; > 100 µM (inactive) with A549; above 100 µM with HCT-15.

Consider `O=c1oc2ccccc2c(Nc2ccc3c(c2)Oc2ccccc2O3)c1[N+](=O)[O-]`, for which the GI50 with SF-268 was 23.7 µM (inactive); in the test with UACC-62, 17.7 µM (inactive); in the test with SF-539, 19.2 µM (inactive); in the test on M14 it was 30.3 µM (inactive); in the test with HCT-116, 31.8 µM (inactive); in the test on MCF7, 20.3 µM (inactive). Moreover, the GI50 with KM12 was 59.2 µM (inactive); with EKVX, 21.7 µM (inactive); in the test on OVCAR-8, 18.8 µM (inactive); in the test with MDA-MB-231 it was 17.1 µM (inactive); in the test on MDA-N, 49.8 µM (inactive); with TK-10, 21.2 µM (inactive). The GI50 was 16.9 µM (inactive) with SK-MEL-2; 65.2 µM (inactive) in the test with HT-29; 16 µM (inactive) in the test on U-251; 17.7 µM (inactive) with PC-3; 32.4 µM (inactive) with A549; 44.1 µM with HCT-15.

As to `COC(=O)C1C(=O)CC2CCCCC21` (stereo not drawn), the GI50 with SF-268, in the test on UACC-62, with DMS-114, in the test with SF-539, in the test on M14 and with HCT-116 was > 100 µM (inactive) in each case. For the same compound, the GI50 is > 100 µM (inactive) in the test with KM12; > 100 µM (inactive) in the test on TK-10; > 100 µM (inactive) in the test on SK-MEL-2; > 100 µM (inactive) in the test on U-251; > 100 µM (inactive) in the test with A549; above 100 µM with HCT-15.

Take `Cc1ccc(S(=O)(=O)n2cc(C=O)c(-c3cn(S(=O)(=O)c4ccc(C)cc4)cc3-c3cn(S(=O)(=O)c4ccc(C)cc4)cc3C=O)c2)cc1`: the GI50 in the test with SF-268 is > 100 µM (inactive); with UACC-62, 48.1 µM (inactive); with SF-539, 25.9 µM (inactive); with M14, 29.6 µM (inactive); with HCT-116, 28 µM (inactive); in the test on MCF7, 27.4 µM (inactive). Further, the GI50 is 50.7 µM (inactive) with KM12; 16.7 µM (inactive) in the test with EKVX; 37.2 µM (inactive) in the test on OVCAR-8; > 100 µM (inactive) in the test with MDA-MB-231; 75.2 µM (inactive) in the test with MDA-N; 20.9 µM (inactive) with TK-10. Also, the GI50 is 33.8 µM (inactive) with SK-MEL-2; 36.2 µM (inactive) in the test with HT-29; 29.6 µM (inactive) in the test with U-251; 27.5 µM (inactive) in the test on PC-3; 72.4 µM (inactive) in the test with A549; 55.7 µM in the test with HCT-15.

Consider `COC(=O)c1ccc(NC(=O)c2cc3c(cc2Br)OCO3)o1`, for which the GI50 with SF-268 was 0.471 µM (active); in the test on UACC-62 it was > 100 µM (inactive); in the test with SF-539, > 100 µM (inactive); in the test with M14, > 100 µM (inactive); with HCT-116 it was > 100 µM (inactive); with MCF7 it was > 100 µM (inactive). Further, the GI50 was > 100 µM (inactive) with KM12; > 100 µM (inactive) with EKVX; > 100 µM (inactive) in the test on OVCAR-8; > 100 µM (inactive) in the test with MDA-MB-231; 42.5 µM (inactive) with MDA-N; > 100 µM (inactive) in the test with TK-10. The GI50 was > 100 µM (inactive) in the test with SK-MEL-2; > 100 µM (inactive) with HT-29; > 100 µM (inactive) in the test on U-251; > 100 µM (inactive) in the test on PC-3; > 100 µM (inactive) with A549; 94 µM in the test on HCT-15.

Regarding `O=C1OC(c2ccc([N+](=O)[O-])cc2)=N/C1=C\c1ccc(O)cc1`, the GI50 with SF-268, in the test on UACC-62, in the test on SF-539, in the test with M14, in the test on HCT-116 and with MCF7 was > 100 µM (inactive) in each case. The GI50 in the test on KM12, in the test with EKVX, in the test with OVCAR-8, in the test on MDA-MB-231, in the test on MDA-N and with TK-10 was > 100 µM (inactive) throughout. The GI50 in the test with SK-MEL-2 was > 100 µM (inactive); in the test on HT-29, > 100 µM (inactive); in the test on U-251, > 100 µM (inactive); with PC-3 it was > 100 µM (inactive); in the test with A549, > 100 µM (inactive); in the test with HCT-15, above 100 µM.

Turning to `CC(C)c1ccc(/C=C2\CSCC3=C2N=C2SCC(=O)N2C3c2ccc(C(C)C)cc2)cc1` (stereo not drawn), the GI50 in the test on SF-268, in the test on UACC-62, in the test on SF-539, in the test with M14, in the test with HCT-116 and with MCF7 was > 100 µM (inactive) each time. In addition, the GI50 in the test with KM12, in the test with EKVX, in the test on OVCAR-8, with MDA-MB-231, in the test on MDA-N and in the test on TK-10 was > 100 µM (inactive) each time. Moreover, the GI50 was > 100 µM (inactive) in the test on SK-MEL-2; > 100 µM (inactive) in the test with HT-29; 64.3 µM (inactive) with U-251; > 100 µM (inactive) in the test on PC-3; > 100 µM (inactive) with A549; above 100 µM in the test on HCT-15.

In the case of `C[C@]12CC[C@H]3[C@@H](CC=C4C[C@@H](O)CC[C@@]43C)[C@@H]1C/C(=C\c1ccncc1)[C@@H]2O`, the GI50 in the test on SF-268 is 21.2 µM (inactive); with UACC-62, 15.4 µM (inactive); in the test with SF-539, 16.9 µM (inactive); in the test with M14 it was 16.5 µM (inactive); in the test with HCT-116, 18.7 µM (inactive); with MCF7, 23 µM (inactive). Further, the GI50 in the test with KM12 is 15.9 µM (inactive); with EKVX it was 14.8 µM (inactive); in the test on OVCAR-8 it was 15 µM (inactive); in the test with MDA-MB-231 it was 28.8 µM (inactive); in the test on MDA-N, 21.8 µM (inactive); in the test on TK-10 it was 39.3 µM (inactive). Also, the GI50 is 21.1 µM (inactive) in the test on SK-MEL-2; 20.9 µM (inactive) in the test with HT-29; 16.5 µM (inactive) with U-251; 19.1 µM (inactive) with PC-3; 19.7 µM (inactive) in the test with A549; 20.9 µM in the test on HCT-15.
